From patent US11846640B2, “Identification of anticoagulants in a sample” (DSM IP Assets B.V., priority 2013, dated 2023)

Experiments:
Assay type in all cases: biochemical, human
plasma samples [1] = test: PT (HemosIL PT recombiplastin) clotting time; conditions: Table 6, spiked plasma, mean
Procedure: (§1) In order to address the above question, i.e. to determine the nature of an anticoagulant in a sample, a combination of several methods has to be performed, including PiCT® Method 1, PiCT® Method 4, aPTT (HemosIL™ aPTT SP), PT (HemosIL™ PT recombiplastin), and sometimes even a modified PiCT® Method 1 wherein polybrene has been added. In order to simulate this, plasma samples spiked with different levels of anticoagulants were analyzed using the ACL TOP® 500 analyzer.

plasma samples [2] = test: aPTT (HemosIL aPTT SP) clotting time; conditions: Table 6, spiked plasma, mean
Procedure: as §1, with “analyzer. For each drug, a specific pattern was obtained, i.e. clotting times within the RR and clotting times above the RR, depending on the used testing method, which is unique at least for the class of anticoagulant or even for a specific anticoagulant.” for “analyzer.”

normal plasma pool (NPP) [3] = test: PiCT Method 4 (inverted PiCT) clotting time on ACL TOP 500; conditions: for Clotting time: Table 10B, PiCT Method 4, NPP spiked, mean n = 4; for PiCT ® method 4 clotting time: Table 11
Procedure: The present invention is in one aspect directed to the use of a clotting assay, in particular the PiCT® testing method on a detection system such as e.g. the ACL TOP® 500 analyzer and to a method to quantitatively and qualitatively detect anticoagulants in a sample, e.g. blood or plasma. […] PiCT® Method 4 or PiCT® inverted includes that first the start reagent is added to the sample, the mixture allowed to proceed according to the manufacturer's instructions followed by addition of the activator, i.e. a reversed order compared to standard PiCT® (see above). PiCT® Method 1 to 4 is described in more detail in the Examples.
(§2) The 4 methods (see above) are in more detail described in the Examples. Specific pipetting schemes were designed using NPP spiked with incremental amounts of anticoagulants in order to achieve high reproducibility of the test system, which is required for drug identification including use in a POC system. With regards to the ACL TOP® 500 analyzer, PiCT® Method 1 to 4 has been established as follows: • PiCT® Method 1: 50 μl of plasma is incubated for 180 sec with 50 μl of reagent 1 and afterwards 50 μl of reagent 2 is added and the time to clot is recorded on the ACL TOP® 500 (i.e. pipetting scheme: P-50/A-50/I-180/50-S).
After calculation of the RR for the different kind of anticoagulants (see Example 1) samples of NPP spiked with incremental amounts of anticoagulants were used in the ACL TOP® 500, wherein 45 μl start reagent was incubated with 140 μl plasma for 60 sec. The time to clot was recorded after addition of 40 μl of activator (i.e. so-called inverted PiCT®).

normal plasma pool (NPP) [4] = test: PiCT Method 1 (standard Pefakit PiCT) clotting time on ACL TOP 500; conditions: for Clotting time with PiCT ® Method 1: spiked plasma; for Clotting time: Table 7C, PiCT Method 1, NPP spiked, mean n = 4
Source text: As described by Korte et al. (supra) or in EP 1240528, Pefakit® PiCT® is a functional clotting assay based on the direct activation of the prothrombinase complex which results in a fine-tuned analytical output directly proportional to the final anticoagulant activity of the factor Xa or factor IIa inhibitors (see Calatzis, Haemostasis 2000, 30:172-174). To perform the Pefakit® PiCT® test (referred to herein as standard “PiCT® or PiCT® Method 1), a defined amount of PiCT® activator (=reagent 1) is added to a sample, such as, e.g., plasma. The mixture is allowed to proceed at 37° C. for a specific period of time. The Start reagent (=reagent 2) is then added to the mixture and the time required for clot formation is measured. The presence of anticoagulants in the samples dose-dependently prolongs the time to clot. Pefakit® PiCT® is adapted to laboratory instruments based on mechanical or optical detection systems, including but not limited to ACL TOP® family (Instrumentation Laboratory), preferably ACL TOP® 500, STA Compact® series (Stago) or the BCS® XP series (Siemens).
as §2, with “P-50/A-50/I-180/50-S). This method is in particularly useful for detection of UFH, LMWH or hirudin. • PiCT® Method 2: P-75/A-65/I-180/35-S on the ACL TOP® 500 or P-80/A-65/I-180/40-S on the STA Compact® or P-75/A-65/I-180/S-40 on the BCS® XP. This method is in particularly useful for fondaparinux. • PiCT® Method 3: P-90/A-70/I-180/40-S on the ACL TOP® 500 or STA Compact®, or P-70/A-60/I-180/45-S on the BCS® XP. This method is in particularly useful for dabigatran or argatroban. • PiCT® Method 4: P-140/S-45/I160/A-40 on the ACL TOP® 500 or STA Compact®, or P-125/S-45/I-150/A-40 on the BCS® XP. This method is in particularly useful for rivaroxaban or apixaban.” for “P-50/A-50/I-180/50-S).”
With the normal PiCT®, i.e. PiCT® Method 1, wherein 50 μl of plasma is mixed with the same amount of reagent 1 (PiCT® activator), incubated for 180 sec and mixed with the same amount of reagent 2 (PiCT® start reagent) in a ACL TOP® 500 analyzer, the presence of NOACs cannot be determined in a sample. This is true even at high levels of said drugs in the sample, i.e. in the range of 300 ng/ml. Thus, in order to determine which NOAC is present in the sample, a combination of PiCT® Method 1 and PiCT® method 4 has to be used (see above for detailed description). To confirm this, spiked plasma samples with different levels of NOACs were prepared and the clotting time measured using first PiCT® Method 1 followed by PiCT® Method 4. […] In case of dabigatran present in the sample, both PiCT® Method 1 (which had to be adapted, i.e. PiCT® Method 3) and 4 are out of range as indicated in bold.

plasma samples [5] = test: PiCT Method 1 with polybrene added, clotting time; conditions: Table 6, spiked plasma, mean
Source text: By the addition of polybrene a distinction can be done, which of the anticoagulants is really present in the sample: if after addition of polybrene the measured clotting times are again back to RR when using the PiCT® Method 1, the sample comprises heparins, such as e.g. UFH or LMWH. Alternatively, if the result is not going back to RR, the sample comprises low concentrations of dabigatran or hirudin. […] The particular clotting times measured for the different anticoagulants are shown in Table 6, which is an example of results obtained in spiked plasma samples.
as §1, with “analyzer. For each drug, a specific pattern was obtained, i.e. clotting times within the RR and clotting times above the RR, depending on the used testing method, which is unique at least for the class of anticoagulant or even for a specific anticoagulant.” for “analyzer.”

COc1ccc(-n2nc(C(N)=O)c3c2C(=O)N(c2ccc(N4CCCCC4=O)cc2)CC3)cc1 [apixaban]
Clotting time with PT (plasma samples [1]; 50 ng): 11.2 s | Clotting time with aPTT (plasma samples [2]; 50 ng): 31.0 s | Clotting time with aPTT (plasma samples [2]; 200 ng): 36.4 s | Clotting time with PiCT ® Method 4 (normal plasma pool (NPP) [3]; Table 4, NPP spiked with 20 ng per ml): 45 s | Clotting time with PiCT ® Method 4 (normal plasma pool (NPP) [3]; Table 4, NPP spiked with 35 ng per ml): 54 s | Clotting time with PiCT ® Method 4 (normal plasma pool (NPP) [3]; Table 5, spiked plasma, 20 ng per ml): 45 s | Clotting time with PiCT ® Method 4 (normal plasma pool (NPP) [3]; Table 5, spiked plasma, 35 ng per ml): 54 s | Clotting time with PiCT ® Method 4 (normal plasma pool (NPP) [3]; Table 5, spiked plasma, 300 ng per ml): 124.3 s | Clotting time with PiCT ® Method 4 (normal plasma pool (NPP) [3]; Table 6, spiked plasma, 50 ng, mean): 54.4 s | Clotting time with PiCT ® Method 4 (normal plasma pool (NPP) [3]; Table 6, spiked plasma, 200 ng, mean): 151.0 s | Clotting time (normal plasma pool (NPP) [3]; 5 ng/ml): 65 s | Clotting time (normal plasma pool (NPP) [3]; 10 ng/ml): 74 s | Clotting time (normal plasma pool (NPP) [3]; 50 ng/ml): 109 s | Clotting time (normal plasma pool (NPP) [3]; 100 ng/ml): 136 s | Clotting time (normal plasma pool (NPP) [3]; 200 ng/ml): 167 s | Clotting time (normal plasma pool (NPP) [3]; 500 ng/ml): 233 s | PiCT ® method 4 clotting time (normal plasma pool (NPP) [3]; spiked plasma, 20 ng/mL (wash off level)): 45 sec (n = 3) | PiCT ® method 4 clotting time (normal plasma pool (NPP) [3]; spiked plasma, 35 ng/mL (wash off level)): 54 sec (n = 3) | Clotting time with PiCT ® Method 1 (normal plasma pool (NPP) [4]; Table 5, 20 ng per ml (title: Method 3 for dabigatran)): 18 s | Clotting time with PiCT ® Method 1 (normal plasma pool (NPP) [4]; Table 5, 35 ng per ml (title: Method 3 for dabigatran)): 18 s | Clotting time with PiCT ® Method 1 (normal plasma pool (NPP) [4]; Table 5, 300 ng per ml (title: Method 3 for dabigatran)): 24.9 s | Clotting time with PiCT ® Method 1 (normal plasma pool (NPP) [4]; Table 6, 50 ng, mean): 18.9 s | Clotting time with PiCT ® Method 1 (normal plasma pool (NPP) [4]; Table 6, 200 ng, mean): 22.3 s

lepirudin [hirudin]
Clotting time with PT (plasma samples [1]; 0.4 μg): 11.8 s | Clotting time with PT (plasma samples [1]; 2.5 μg): 14.6 s | Clotting time with PiCT ® Method 1 + polybrene (plasma samples [5]; 0.4 μg): 89.5 s | Clotting time with PiCT ® Method 1 + polybrene (plasma samples [5]; 2.5 μg): 258.0 s | Clotting time with aPTT (plasma samples [2]; 0.4 μg): 60.6 s | Clotting time with aPTT (plasma samples [2]; 2.5 μg): 108.8 s | Clotting time with PiCT ® Method 4 (normal plasma pool (NPP) [3]; Table 4, NPP spiked with 0.4 μg per ml): 300 s | Clotting time with PiCT ® Method 4 (normal plasma pool (NPP) [3]; Table 6, spiked plasma, 0.4 μg, mean): 300.0 s | Clotting time with PiCT ® Method 4 (normal plasma pool (NPP) [3]; Table 6, spiked plasma, 2.5 μg, mean): 300.0 s | Clotting time with PiCT ® Method 1 (normal plasma pool (NPP) [4]; Table 6, 0.4 μg, mean): 88.9 s | Clotting time with PiCT ® Method 1 (normal plasma pool (NPP) [4]; Table 6, 2.5 μg, mean): 264.5 s | Clotting time (normal plasma pool (NPP) [4]; 0.2 μg/ml): 41 s | Clotting time (normal plasma pool (NPP) [4]; 0.4 μg/ml): 55 s | Clotting time (normal plasma pool (NPP) [4]; 0.6 μg/ml): 69 s | Clotting time (normal plasma pool (NPP) [4]; 0.9 μg/ml): 86 s | Clotting time (normal plasma pool (NPP) [4]; 1.3 μg/ml): 113 s | Clotting time (normal plasma pool (NPP) [4]; 1.7 μg/ml): 142 s | Clotting time (normal plasma pool (NPP) [4]; 2.0 μg/ml): 158 s | Clotting time (normal plasma pool (NPP) [4]; 2.4 μg/ml): 183 s | Clotting time (normal plasma pool (NPP) [4]; 2.8 μg/ml): 209 s | Clotting time (normal plasma pool (NPP) [4]; 3.0 μg/ml): 219 s
